What follows are molecules tested against human Kv1.3 (Homo sapiens (Human), UniProt P22001) (assay: Kv1.3 potency evaluation, automated patch clamp electrophysiology (QPatch HT) in CHO-Kv1.3 cells). Conditions: whole-cell QPatch HT, % inhibition of charge, step to +30 mV, four concentrations, N≥3 cells, read-out: hKv1.3 IC50.
Chain of human Kv1.3 (P22001 whole entry): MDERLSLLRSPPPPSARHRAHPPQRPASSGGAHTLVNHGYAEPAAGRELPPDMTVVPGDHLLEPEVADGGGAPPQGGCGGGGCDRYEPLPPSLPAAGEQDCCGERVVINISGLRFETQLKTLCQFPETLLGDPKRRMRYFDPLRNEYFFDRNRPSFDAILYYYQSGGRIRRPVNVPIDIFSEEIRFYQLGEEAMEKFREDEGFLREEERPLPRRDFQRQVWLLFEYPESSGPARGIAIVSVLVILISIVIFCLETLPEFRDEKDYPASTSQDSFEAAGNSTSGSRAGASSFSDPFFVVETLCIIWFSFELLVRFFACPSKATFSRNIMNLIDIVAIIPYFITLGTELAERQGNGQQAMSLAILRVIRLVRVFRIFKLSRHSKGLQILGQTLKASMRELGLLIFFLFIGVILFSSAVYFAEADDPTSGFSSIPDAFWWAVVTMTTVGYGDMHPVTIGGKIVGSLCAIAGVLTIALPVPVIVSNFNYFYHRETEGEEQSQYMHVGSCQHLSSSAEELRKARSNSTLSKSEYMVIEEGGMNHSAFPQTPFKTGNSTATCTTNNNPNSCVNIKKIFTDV
Type: cell-based
Description: Biological Assays Kv1.3 Potency Evaluation Electrophysiology Recordings
A proprietary Chinese hamster ovary cell line stably expressing exogenous human a-subunits of Kv1.3 (CHO-Kv1.3) channel, validated biophysically and pharmacologically in house, was used to assess the ability of test compounds to block Kv1.3 currents using automated patch clamp electrophysiology. The QPatch HT system (Sophion Bioscience A/S, Denmark) was used with the conventional whole-cell configuration. This system is an automated, chip-based planar patch clamp device allowing for up to 48 parallel independent experiments in one experimental assay run. Cells are added to each well and drawn by suction onto a small aperture to obtain a Gigaohm seal between the cell membrane and treated silicon surface, and whole-cell recordings initiated after access is achieved by suction and/or voltage pulses. The QPatch HT uses static perfusion, whereby a small volume of recording solution or drug is added to a reservoir on the chip and the solution perfuses across the cell through quartz-lined microfluidic channels; this solution is removed by capillary action when the next sample application is made.
CHO-Kv1.3 cells were prepared for experiments by dissociation from T175 cell culture flasks using trypsin-EDTA (0.05%), cells were kept in serum free media in the cell hotel on board the QPatch HT. These cells were sampled, washed and re-suspended in extracellular recording solution by the QPatch HT immediately before application to the recording well site on the chip. Experiments were performed using the following solutions; extracellular solution contained (in mM); 150 NaCl, 10 KCl, 1 MgCl2, 3 CaCl2), 10 Glucose and 10 HEPES (pH 7.4, NaOH) and intracellular solution contained (in mM); 20 KCl, 120 KF, 10 HEPES, 10 EGTA, 5 ATP (pH 7.2, KOH).
The potency (Inhibitory Concentration 50%, IC50) of synthesized compounds against Kv1.3 was determined from concentration-response relationships established by cumulatively applying four escalating concentrations of test compound to an individual cell and a minimum of N≥3 individual cells of data per compound were used to generate the IC50 value.
On achieving the whole-cell configuration; two additions of vehicle (0.1-0.3% DMSO v/v) were applied to each cell in two bolus additions with a two minute recording period between each addition (four minutes total recording time). Following the vehicle period, four concentrations of test sample were applied as two bolus additions per test concentration at two minute intervals, and the effects on current measured during the four minute recording period.
Currents were elicited using a single step voltage protocol. From a holding potential of −80 mV the cell is depolarised to +30 mV (500 ms) resulting in an outward current before finally repolarising the cell by returning to the holding potential. The command voltage was applied at a frequency of 0.067 Hz throughout the duration of the experiment. For each sweep of the voltage protocol membrane current and the passive properties of the individual cells were recorded by QPatch assay software (version 5.2). Cursors were placed to calculate the charge (integral of the current recorded during cursor interval) between 2-490 ms (0.4-99%) of the 500 ms step to +30 mV.
The % inhibition of charge for each test concentration application period was calculated as the reduction in mean charge at the end of each concentration test period relative to the charge value measured at the end of the control (i.e. vehicle) period. Sigmoidal concentration response curves (four parameter logistic curve) were fitted to the % inhibition rom which the IC50 was determined. Curve fits were constrained at 0 and 100%.
`CC1(C)N=C(C23CC(N(Cc4ccc(Cl)cc4)S(=O)(=O)c4ccccc4)(C2)C3)N[C@H]1C(=O)NCCC(F)(F)F` (mixture of isomers) [Example 2] showed an IC50 of 30 nM. In the case of `CN(CCC(F)(F)F)C(=O)[C@@H]1NC(C23CC(N(Cc4ccc(Cl)c(F)c4)S(=O)(=O)c4ccccc4)(C2)C3)=NC1(C)C` (mixture of isomers) [Example 3], the IC50 is reported as 61 nM. Work on `CC1(C)N=C(C23CC(N(Cc4ccc(Cl)cc4)S(=O)(=O)CC4CC4)(C2)C3)N[C@H]1C(=O)NCCC(F)(F)F` (mixture of isomers) [Example 4] yielded an IC50 of 79 nM. `CC1(C)N=C(C23CC(N(Cc4ccc(Cl)c(F)c4)S(=O)(=O)c4ccccc4)(C2)C3)N[C@H]1C(=O)NCC1(F)CC1` (mixture of isomers) [Example 6] was tested, and the IC50 was 20 nM. With `CCCS(=O)(=O)N(Cc1ccc(Cl)cc1)C12CC(C3=NC(C)(C)[C@H](C(=O)NCCC(F)(F)F)N3)(C1)C2` (mixture of isomers) [Example 7] the IC50 was 26 nM. Molecule `CC1(C)N=C(C23CC(N(Cc4ccc(Cl)cc4)S(=O)(=O)c4ccoc4)(C2)C3)N[C@H]1C(=O)NCCC(F)(F)F` (mixture of isomers) [Example 8] has an IC50 of 27 nM. For `CC1(C)N=C(C23CC(N(Cc4ccc(Cl)cc4F)S(=O)(=O)c4ccccc4)(C2)C3)N[C@H]1C(=O)NCCC(F)(F)F` (mixture of isomers) [Example 9], the IC50 was 28 nM. `CCCCS(=O)(=O)N(Cc1ccc(Cl)cc1)C12CC(C3=NC(C)(C)[C@H](C(=O)NCCC(F)(F)F)N3)(C1)C2` (mixture of isomers) [Example 10] showed an IC50 of 28 nM. `CC1(C)N=C(C23CC(N(Cc4ccc(Cl)c(F)c4)S(=O)(=O)c4ccccc4)(C2)C3)N[C@H]1C(=O)NCC1CC1(F)F` (mixture of isomers) [Example 11] showed an IC50 of 28 nM. For `CC1(C)N=C(C23CC(N(Cc4ccc(Cl)cc4)S(=O)(=O)c4ccccc4)(C2)C3)N[C@H]1C(=O)NC12CC(C1)C2` (mixture of isomers) [Example 12], the IC50 was 30 nM. `CC1(C)N=C(C23CC(N(Cc4ccc(Cl)c(F)c4)S(=O)(=O)c4ccccc4)(C2)C3)N[C@H]1C(=O)NCCC(F)(F)F` (mixture of isomers) [Example 13] gave an IC50 of 37 nM. In the case of `CC1(C)N=C(C23CC(N(Cc4ccc(Cl)c(F)c4)S(=O)(=O)c4ccccc4)(C2)C3)N[C@H]1C(=O)NCC1CC1(F)F` (mixture of isomers) [Example 14], the IC50 is reported as 33 nM. `CC(F)(F)CNC(=O)[C@@H]1NC(C23CC(N(Cc4ccc(Cl)c(F)c4)S(=O)(=O)c4ccccc4)(C2)C3)=NC1(C)C` (mixture of isomers) [Example 15] gave an IC50 of 33 nM. For `CC1(C)N=C(C23CC(N(Cc4cccc(Cl)c4)S(=O)(=O)c4ccccc4)(C2)C3)N[C@H]1C(=O)NCCC(F)(F)F` (mixture of isomers) [Example 16], the IC50 was 35 nM. `CN(C(=O)[C@@H]1NC(C23CC(N(Cc4ccc(Cl)c(Cl)c4)S(=O)(=O)c4ccccc4)(C2)C3)=NC1(C)C)C12CC(C1)C2` (mixture of isomers) [Example 17] showed an IC50 of 35 nM. In the case of `CC1(C)N=C(C23CC(N(Cc4ccc(Cl)cc4)S(=O)(=O)c4cccs4)(C2)C3)N[C@H]1C(=O)NCCC(F)(F)F` (mixture of isomers) [Example 18], the IC50 is reported as 36 nM. Work on `CCCNC(=O)[C@@H]1NC(C23CC(N(Cc4ccc(Cl)c(F)c4)S(=O)(=O)c4ccccc4)(C2)C3)=NC1(C)C` (mixture of isomers) [Example 19] yielded an IC50 of 37 nM. With `CC1(C)N=C(C23CC(N(Cc4ccc(Cl)c(F)c4)S(=O)(=O)c4ccccc4)(C2)C3)N[C@H]1C(=O)NCCC1CC1` (mixture of isomers) [Example 20] the IC50 was 37 nM. `CC1(NC(=O)[C@@H]2NC(C34CC(N(Cc5ccc(Cl)c(F)c5)S(=O)(=O)c5ccccc5)(C3)C4)=NC2(C)C)CCC1` (mixture of isomers) [Example 21] gave an IC50 of 38 nM. With `CC1(C)N=C(C23CC(N(Cc4ccc(Cl)c(F)c4)S(=O)(=O)c4ccccc4)(C2)C3)N[C@H]1C(=O)NC[C@H]1CC1(F)F` (mixture of isomers) [Example 22] the IC50 was 39 nM. Molecule `CC1(C)N=C(C23CC(N(Cc4ccc(F)cc4)S(=O)(=O)c4ccccc4)(C2)C3)N[C@H]1C(=O)NCCC(F)(F)F` (mixture of isomers) [Example 23] has an IC50 of 40 nM. `CC1(C)N=C(C23CC(N(Cc4ccc(F)c(F)c4)S(=O)(=O)c4ccccc4)(C2)C3)N[C@H]1C(=O)NCCC(F)(F)F` (mixture of isomers) [Example 24] showed an IC50 of 40 nM. Molecule `CC1(C)N=C(C23CC(N(Cc4ccccc4)S(=O)(=O)c4ccccc4)(C2)C3)N[C@H]1C(=O)NCCC(F)(F)F` (mixture of isomers) [Example 25] has an IC50 of 40 nM. For `CC1(C)N=C(C23CC(N(Cc4ccc(Cl)c(F)c4)S(=O)(=O)c4ccccc4)(C2)C3)N[C@H]1C(=O)NCC1(C(F)(F)F)CC1` (mixture of isomers) [Example 26], the IC50 was 54 nM. `C[C@@H]1CC(F)(F)CN1C(=O)[C@@H]1NC(C23CC(N(Cc4ccc(Cl)c(F)c4)S(=O)(=O)c4ccccc4)(C2)C3)=NC1(C)C` (mixture of isomers) [Example 27] was tested, and the IC50 was 40 nM. `CC(C)(F)CNC(=O)[C@@H]1NC(C23CC(N(Cc4ccc(Cl)c(Cl)c4)S(=O)(=O)c4ccccc4)(C2)C3)=NC1(C)C` (mixture of isomers) [Example 28] showed an IC50 of 40 nM. `CN(C(=O)[C@@H]1NC(C23CC(N(Cc4ccc(Cl)c(Cl)c4)S(=O)(=O)c4ccccc4)(C2)C3)=NC1(C)C)C1CC(F)(F)C1` (mixture of isomers) [Example 29] showed an IC50 of 40 nM. For `CC1(C)N=C(C23CC(N(Cc4ccc(Cl)c(F)c4)S(=O)(=O)c4ccccc4)(C2)C3)N[C@H]1C(=O)N1CCC12CCC2` (mixture of isomers) [Example 30], the IC50 was 41 nM. `CC1(C)N=C(C23CC(N(Cc4ccc(Cl)c(F)c4)S(=O)(=O)c4ccccc4)(C2)C3)N[C@H]1C(=O)N1CCCCC1` (mixture of isomers) [Example 31] was tested, and the IC50 was 42 nM. Molecule `CCCS(=O)(=O)N(Cc1ccc(Cl)c(Cl)c1)C12CC(C3=NC(C)(C)[C@H](C(=O)NC45CC(C4)C5)N3)(C1)C2` (mixture of isomers) [Example 32] has an IC50 of 43 nM. Molecule `CN(C(=O)[C@@H]1NC(C23CC(N(Cc4ccc(Cl)c(F)c4)S(=O)(=O)c4ccccc4)(C2)C3)=NC1(C)C)C12CC(C1)C2` (mixture of isomers) [Example 33] has an IC50 of 43 nM. `C[C@@H](NC(=O)[C@@H]1NC(C23CC(N(Cc4ccc(Cl)c(F)c4)S(=O)(=O)c4ccccc4)(C2)C3)=NC1(C)C)C(F)(F)F` (mixture of isomers) [Example 34] showed an IC50 of 47 nM. For `CC(C)(F)CNC(=O)[C@@H]1NC(C23CC(N(Cc4ccc(Cl)c(F)c4)S(=O)(=O)c4ccccc4)(C2)C3)=NC1(C)C` (mixture of isomers) [Example 35], the IC50 was 44 nM. `CC1(C)N=C(C23CC(N(Cc4ccc(Cl)c(F)c4)S(=O)(=O)c4ccccc4)(C2)C3)N[C@H]1C(=O)NCC1(F)CCC1` (mixture of isomers) [Example 36] gave an IC50 of 45 nM. Molecule `CC1(C)N=C(C23CC(N(Cc4ccc(Cl)cc4)S(=O)(=O)c4ccccc4)(C2)C3)N[C@H]1C(=O)NCC1CC(F)(F)C1` (mixture of isomers) [Example 37] has an IC50 of 45 nM. `CN(C(=O)[C@@H]1NC(C23CC(N(Cc4ccc(Cl)c(F)c4)S(=O)(=O)c4ccccc4)(C2)C3)=NC1(C)C)C1CC(C(F)F)C1` (mixture of isomers) [Example 38] gave an IC50 of 45 nM. In the case of `CC1(C)N=C(C23CC(N(Cc4ccc(Cl)cc4)S(=O)(=O)c4ccccc4)(C2)C3)N[C@H]1C(=O)NC[C@H]1CC1(F)F` (mixture of isomers) [Example 39], the IC50 is reported as 45 nM. With `CC1(C)N=C(C23CC(N(Cc4cccc(F)c4)S(=O)(=O)c4ccccc4)(C2)C3)N[C@H]1C(=O)NCCC(F)(F)F` (mixture of isomers) [Example 40] the IC50 was 46 nM. `CC1(C)N=C(C23CC(N(Cc4ccc(Cl)cc4)S(=O)(=O)c4ccco4)(C2)C3)N[C@H]1C(=O)NCCC(F)(F)F` (mixture of isomers) [Example 41] was tested, and the IC50 was 46 nM. In the case of `CC1(C)N=C(C23CC(N(Cc4ccc(Cl)cc4)S(=O)(=O)C4CCCCC4)(C2)C3)N[C@H]1C(=O)NCCC(F)(F)F` (mixture of isomers) [Example 42], the IC50 is reported as 46 nM.

Source: patent US12128028B2, “Heterocyclic sulfonamide derivatives and pharmaceutical uses thereof” (METRION BIOSCIENCES LIMITED, priority 2018, dated 2024)
